“Also recorded” adds a separate entry of the source.
Legend:
CT26 transcriptome = test: RNAseq of treated CT26 tumors; assay type: in vivo, Mus musculus
Protocol: Tumor tissue was flash-frozen in liquid nitrogen and stored at −80° C. at the time of collection in the animal unit and was sent to Novogene on dry ice. Tissue processing and RNA extraction was carried out by Novogene Co. by using the QIAGEN RNeasy Plus Universal kit (Qiagen, Cat. No. 73404), according to the manufacturer's protocol. Briefly, tissue samples were homogenized in QIAzol Lysis Reagent. The homogenate was then separated into aqueous and organic phases by centrifugation after addition of gDNA eliminator solution and chloroform. The upper, aqueous phase containing RNA was collected, and RNA purified using RNeasy spin columns. RNA quality check (QC) was performed by 1% Agarose gel electrophoresis, amount and purity were measured by Nanodrop, and RNA […] Number (RIN) was obtained by Bioanalyzer Agilent2100.
NEBNextR Ultra RNA library prep kit (Cat. No. E7530L) was used for library preparation for sequencing. Samples were sequenced using Illumina PE150 (50M reads/sample) bulk RNA-seq and downstream bioinformatic analysis was performed.
Reads were mapped to Mus musculus genome (mm10) genome using Star (Dobin A et al., Bioinformatics 2013; 29:15-21). Uniquely mapped reads were counted using htseq-count (Putri GH et al., Bioinformatics 2022; 38:2943-5). DESeq2 (Love M I et al., Genome Biol 2014; 15) was used to normalize counts with size factors and identify differentially expressed genes across conditions with a threshold of abs (log2FC)>1 and adjusted p value<0.05.
(§1) Gene set enrichment analysis was performed using R package ‘fGSEA’ (Korotkevich G et al., bioRxiv 2021; 060012) using hallmark gene sets from mouse MSigDB (Subramanian A. et al., Proc Natl Acad Sci USA 2005; 102:15545-50). Enrichment p-values were calculated as described in Korotkevich G et al., bioRxiv 2021; 060012 and p-values were adjusted using Benjamini-Hochberg method. Gene ontology Biological Process enrichments were identified using R package topGO (Bioconductor-topGO) with adj-pval<0.05. KEGG pathway enrichment analysis was conducted using R package clusterProfiler (Wu T. et al., The Innovation 2021; 2:100141). MCPCounter tool (Becht E. et al., Genome Biol 2016; 17:1-20) was used to estimate immune cell abundances for each sample and condition using immune gene signatures within MCPCounter.

[1] = system: adenosine pathway metabolites; test: Mass Spectrometry Imaging of CT26 tumors; assay type: in vivo, mouse
Protocol: Tumors were snap frozen in liquid nitrogen immediately after resection and the frozen tissues were embedded in a HPMC/PVP hydrogel as previously described (Dannhorn A. et al., Anal Chem 2020; 92:11080-8). Sectioning was performed on a CM3050 S cryostat (Leica Biosystems, Nussloch, Germany) at a section thickness of 10 um and the tissue sections were immediately thaw mounted and dried under a stream of nitrogen and sealed in vacuum pouches to preserve the metabolic integrity of the sections. Tissue sections for DESI-MSI and IMC were thaw-mounted onto Superfrost microscope slides (VWR, Cat. No. 630-2863), whilst sections prepared for MALDI-MSI were thaw mounted onto conductive indium tin oxide (ITO) coated slides (Bruker Daltonik, Cat. No. 8237001). Polyvinylpyrrolidone (PVP) and (Hydroxypropyl) methylcellulose (HPMC) (purchased from Merck (Cat. No.PVP360; H8384). Methanol (Cat. No. 15624680), iso-pentane (Cat. No. 15692830) and isopropyl alcohol (Cat. No. 10674732) were obtained from Fisher Scientific.
DESI-MSI analysis was performed on a Q-Exactive mass spectrometer (Thermo Scientific, Bremen, Germany) equipped with an automated 2D-DESI ion source (Prosolia Inc., Indianapolis, IN, USA) operated in negative ion mode, covering the applicable mass range up to m/z of 1000, with a nominal mass resolution of 70,000. […]

[2] = system: immune cell populations in the treated CT26 tumors; test: MCP-Counter estimate of immune cell abundance from RNAseq; set-up: species or system mouse; conditions: MCP counter on RNAseq
Protocol: as §1
Next we checked if the gene perturbation at this scale also led to changes in the enumeration of the cell populations. For this we estimated the abundance of immune cell populations in the treated CT26 tumors, using the MCP-Counter tool (Becht E, et al., Genome Biol 2016; 17:1-20).

[3] = system: MCA205 (fibrosarcoma) tumor cells; test: MCA205 syngeneic mouse tumor model; assay type: in vivo, C57BL/6 mice; conditions: MCA205 tumors; result in words
Protocol: (§2) In vivo studies were performed using 8-10 week old BALB/cAnNCrl mice (Charles River UK) or C57BL/6. Mice were housed in an AstraZeneca vivarium with access to food and water ad libidum and were cared for daily by trained personnel. Mice were acclimatized to the vivarium conditions for a week and handled according to the Home Office Animals Scientific Procedures Act, 1986, UK. All animal work was carried out under a Home Office approved project licence (PPL P49077891) and […] (RTx studies) as well as according to the institutional guidelines. BALB/c mice were subcutaneously implanted with 0.5e6 CT26 (colorectal) tumor cells. […] Tumors were measured with callipers three times a week, starting from day-5. […]
(§3) All in vivo data were collated in the Excel spreadsheets and transferred to GraphPad Prism 9.00 (GraphPad Software Inc.) for graphical representation and statistical analysis. After outlier identification and Shapiro-Wilk test for normality distribution, statistical significance was determined by One-way ANOVA followed by Dunnett's multiple comparison for comparisons of more than two groups if data were normally distributed. […] Survival studies were analysed with a log rank (Mantel-Cox) test, comparing only two survival curves at a time. […]

[4] = system: CT26 (colorectal) tumor cells; test: CT26 syngeneic mouse tumor model; assay type: in vivo, BALB/c mice; conditions: CT26 tumors; result in words
Protocol: as §2, §3

[5] = CT26 tumors vs control, abs(log2FC)>1, adjusted p<0.05
[6] = CT26 tumors, component added to the other parts of aCD73+aPD-L1+5FU+OHP
[7] = component within aCD73+aPD-L1+5FU+OHP, not modulated in other iterations

5-fluorouracil (5FU)+oxaliplatin (OHP) [5FU+OHP]
Down-regulated genes (CT26 transcriptome; [5]): 158 genes | Up-regulated genes (CT26 transcriptome; [5]): 277 genes | differentially expressed (DE) genes (CT26 transcriptome; [5]): 435 DE DE genes | Up-regulated genes (CT26 transcriptome; CT26 tumors vs control, abs(log2FC)>1, adjusted p<0.05, listed as FF): 277 Up- genes | genes downregulated when the named component is included in the combination (CT26 transcriptome; [6]): IL-10, IL-1b, CXCL2, S100A8 | genes upregulated or notably influenced when the named component is included in the combination (CT26 transcriptome; [6]): Interferon-gamma, TRIM6, CCL17, Granzyme B, GDF15, perforin and Lag3 | individual genes downregulated (CT26 transcriptome; CT26 tumors, gene names): CXCL2 expression was reduced; also recorded: CXCL2, IL-1b, CD103 and XCR1 | individual genes upregulated (CT26 transcriptome; CT26 tumors, gene names): CCL3, 4, 8, 17, CXCL10, GDF15, CD8a, IFNγ, Perforin, Granzyme, Lag-3 and PD-1; also recorded: IFN-Y, CCL3, CCL8, Lag-3 and granzyme B; also recorded: elevated ARORA2 gene expression | DE genes due to addition of the named component (CT26 transcriptome; aCD73+aPD-L1+5FU+OHP vs the combination without the component, Abs(log2FC)>=1, Adj-pval<0.05): 546 DE genes | genes uniquely downregulated by the named component (CT26 transcriptome; [7]): 122 genes | genes uniquely upregulated by the named component (CT26 transcriptome; [7]): 360 genes | ATP abundance (MSI) ([1]; compared to control treated tumors): modest increase | AMP abundance (MSI) ([1]; compared to other treatment groups): modest increase | abundance of immune cell populations in tumor [2]: increased lymphocyte representation | tumor growth inhibition / efficacy [3]: supressed tumor growth rates; also recorded: retarded tumor growth in a proportion of drug recipients | tumor growth inhibition / efficacy [4]: supressed tumor growth rates; also recorded: retarded tumor growth in a proportion of drug recipients
